Test results as given in patent US20100087413A1, “Prevention and treatment of inflammation-induced and/or immune-mediated bone loss” (priority 2003, published 2010).
Marks after values point to notes of the source that are not given here.

Tests used:
human 11β-HSD1 [1] = target: T1, human 11β-HSD1 (Homo sapiens, UniProt P28845); test: 11β-HSD1 reductase activity (conversion of radiolabelled cortisone to cortisol) in lysates of stably transfected HEK-293 cells; assay type: biochemical; conditions: 10 μM CBX, 100 nM cortisone substrate
T1 construct: expressed in transfected cells; host or cells: HEK-293 cells, stably transfected; cell lysate

human 11β-HSD1 [2] = target: T1, human 11β-HSD1; test: as above; assay type: biochemical; conditions: for 11β-HSD1 % of control: 20 μM compound, 100 nM cortisone substrate, HEK-293 lysate
Protocol: (§1) Cells were grown in 10 cm dishes to 80% confluence and incubated for 16 h in steroid-free medium (charcoal-treated fetal calf serum (FCS) from HyClone, Logan, Utah). Cells were rinsed once with phosphate-buffered saline (PBS), detached and centrifuged for 3 min at 150×g. The supernatant was removed and the cell pellet quick-frozen in a dry-ice ethanol bath. At the day of experiment, cell pellets were resuspended in buffer TS2 (100 mM NaCl, 1 mM EGTA, 1 mM EDTA, 1 mM MgCl2, 250 mM sucrose, 20 mM Tris-HCl, pH 7.4), sonicated and activities determined immediately. The rate of conversion of cortisol to cortisone or the reverse reaction was determined in 96-well optical PCR reaction plates (Applied Biosystems, Foster City, Calif.) in a final volume of 22 μl, and the tubes were capped during the reaction to avoid evaporation.
Reactions were initiated simultaneously by adding 10 μl of cell lysate and 12 μl of TS2 buffer containing the appropriate concentration of the inhibitory compound to be tested, NADPH, 30 nCi of [1,2,6,7-^3H]-cortisone and unlabeled cortisone, whereby final concentrations were 400 μM NADPH and 100 nM cortisone. Activities were determined immediately after cell disruption by measuring the conversion of radiolabeled cortisone to cortisol for 10 min.
(§2) Enzyme kinetics were analyzed by non-linear regression using Data Analysis Toolbox (MDL Information Systems Inc.) assuming first-order rate kinetics.
(§3) Assay with 20 μM of the corresponding compound in the reaction mixture, added simultaneously with the substrate:
(§4) Determination of IC50 values, using 7 different inhibitor concentrations at factor 2 intervals: […]

human 11β-HSD2 = target: T2, human 11β-HSD2 (Homo sapiens, UniProt P80365); test: 11β-HSD2 oxidase activity (conversion of radiolabelled cortisol to cortisone) in lysates of stably transfected HEK-293 cells; assay type: biochemical; conditions: for 11β-HSD2 % of control: 20 μM compound, 25 nM cortisol substrate, HEK-293 lysate
T2 construct: expressed in transfected cells; host or cells: HEK-293 cells, stably transfected; cell lysate
T2 sequence (P80365 1-405): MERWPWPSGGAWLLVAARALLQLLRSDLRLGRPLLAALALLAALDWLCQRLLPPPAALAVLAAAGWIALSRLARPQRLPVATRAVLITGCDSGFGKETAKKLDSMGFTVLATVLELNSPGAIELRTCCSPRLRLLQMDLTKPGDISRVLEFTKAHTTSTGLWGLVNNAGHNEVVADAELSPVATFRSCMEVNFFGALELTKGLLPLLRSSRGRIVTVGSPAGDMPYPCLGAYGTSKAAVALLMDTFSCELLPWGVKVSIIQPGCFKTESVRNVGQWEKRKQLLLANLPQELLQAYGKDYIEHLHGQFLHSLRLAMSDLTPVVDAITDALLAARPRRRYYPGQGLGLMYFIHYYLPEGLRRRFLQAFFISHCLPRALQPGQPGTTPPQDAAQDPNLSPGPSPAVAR
Protocol: as §1
Reactions were initiated by simultaneously adding 10 μl of cell lysate and 12 μl of TS2 buffer containing the appropriate concentration of the inhibitory compound to be tested, NAD^+, 30 nCi of [1,2,6,7-^3H]-cortisol and unlabeled cortisol. […] Stock solutions of the inhibitors in methanol or DMSO were diluted in TS2 buffer to yield the appropriate concentrations, whereby the concentration of methanol or DMSO in the reactions were kept below 0.1%. Control reactions with or without 0.1% of the solvent were performed. Incubation was at 37° C. for 10 min with shaking, reactions were terminated by adding 10 μl of stop solution containing 2 mM of unlabeled cortisol and cortisone dissolved in methanol. The conversion of radiolabeled cortisol was determined by separation of cortisol and cortisone using TLC and a solvent system of 9:1 (v/v) chloroform:methanol, followed by scintillation counting.
as §2, §3, §4

[3] = system: Adjuvant-Induced Arthritis (AIA); test: Adjuvant-induced arthritis (AIA), histology of hind joint sections from arthritic rats; assay type: in vivo; conditions: rat AIA, injected i.d. early (day0, day2, day4) or late (day9, day11, day13)
Description: An intradermal injection, at the base of the tail, with heat killed Mycobaterium tuberculosum in incomplete Feund's Adjuvans results in destructive arthritis within 14 days in susceptible DA or LEW inbred rat strains. AIA can also be induced with cell walls from other bacterial types in IFA, although the arthritogenicity varies. Increased synthesis of tumor necrosis factor a (TNF-a), interleukin 1 (IL-1) and IL-6 is detected as early as day four after adjuvant injection. The disease progresses rapidly over several weeks in what appears clinically to be a monophasic process.
BX-1 early: BX-1 injected i.d. at the time of disease induction (day0) and day2, day4 BX-1 late: BX-1 injected i.d. at first signs of arthritis, day9, day11, day13.
Samples are from both left and right hind limb of three rats per group of a representative experiment
Rat ankle slides were histologically evaluated according to five criteria (blind evaluation by DL Boyle et al., University of California in San Diego, (J. Immunol., January 2002; 168: 51-56.): • 1. Extra-articular inflammation • 2. Bone marrow inflammation (BM) • 3. Synovial inflammation • 4. Cartilage/bone erosion • 5. Proteoglycan damage

T1 sequence (P28845 whole entry): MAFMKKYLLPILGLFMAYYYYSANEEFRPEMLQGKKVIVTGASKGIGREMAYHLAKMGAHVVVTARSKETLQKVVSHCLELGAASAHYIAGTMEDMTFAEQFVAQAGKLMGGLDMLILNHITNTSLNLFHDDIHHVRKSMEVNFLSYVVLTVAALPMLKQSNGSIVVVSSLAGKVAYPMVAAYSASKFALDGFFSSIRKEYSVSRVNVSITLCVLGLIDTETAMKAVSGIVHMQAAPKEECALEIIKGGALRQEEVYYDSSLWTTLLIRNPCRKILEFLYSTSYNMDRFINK

| SMILES | 11β-HSD1 % of control (human 11β-HSD1 [2]) | 11β-HSD2 % of control (human 11β-HSD2) | other results |
| --- | --- | --- | --- |
| CC1(C)[C@@H](OC(=O)CCC(=O)O)CC[C@]2(C)[C@H]3C(=O)C=C4[C@@H]5C[C@@](C)(C(=O)O)CC[C@]5(C)CC[C@@]4(C)[C@]3(C)CC[C@@H]12 [CBX, carbenoxolone] |  |  | 11β-HSD1 % of control (human 11β-HSD1 [1]): 4.43 % of control |
| COc1ccc(CCNC(=O)C23CCC(C)(C(=O)C2=O)C3(C)C)cc1OC (stereo not drawn) [BNW7] | 9.593* % of control | 139.5 % of control | IC50 (human 11β-HSD1 [2]; Mittelwert (mean) of determinations 1-3, read-out: IC 50 11β-HSD1, Mittelwert): 2030 nM; IC 50 11β-HSD2, determination 1 (human 11β-HSD2; determination 1, 7 inhibitor concentrations at factor 2 intervals): did not inhibit; IC 50 11β-HSD2, determination 2 (human 11β-HSD2; determination 2, 7 inhibitor concentrations at factor 2 intervals): did not inhibit; IC 50 11β-HSD2, determination 3 (human 11β-HSD2; determination 3, 7 inhibitor concentrations at factor 2 intervals): did not inhibit |
| COCCC1C(=O)C(O)=C(C(=O)c2ccc(OC)c(C)c2)C1c1ccc(Cl)cc1Cl (stereo not drawn) [BNW9] | 30.65 % of control | 77.43 % of control |  |
| COc1ccc(C(=O)CNc2cccc(Cl)c2Cl)c(C(F)(F)F)c1 [BNW6] | 79.64 % of control | 145 % of control |  |
| CSc1nc2cc(C)c(C)cc2n1C1OC(CO)C(O)C1O (stereo not drawn) [BNW18] | 92.03 % of control | 82.81 % of control |  |
| CC1(C)[C@@H](O)CC[C@]2(C)[C@H]3C(=O)C=C4[C@@H]5C[C@@](C)(C(=O)O)CC[C@]5(C)CC[C@@]4(C)[C@]3(C)CC[C@@H]12 [BX-1, 18-β-glycyrrhetinic acid] |  |  | influence on the pathology of arthritis (T-cell and dendritic cell activation, systemic inflammation, bone marrow infiltration) [3]: positively influence all arms of the pathology of arthritis |
| NC(=O)c1c(NC(=O)C2CC=CCC2C(=O)O)sc2c1CCCCC2 (stereo not drawn) [BNW8] | 41.71 % of control | 102.7 % of control |  |
| CCCCOc1ccc(C(=O)C2=C(O)C(=O)N(CCOC)C2c2cccnc2)c(C)c1 (stereo not drawn) [BNW3] | 60.25 % of control | 53.57 % of control |  |

Continued, in another order:

| 11β-HSD1 % of control (human 11β-HSD1 [2]) | 11β-HSD2 % of control (human 11β-HSD2) | SMILES | other results |
| --- | --- | --- | --- |
| 94.07 % of control | 136.8 % of control | COc1ccc(CNC(=O)C2CCC(=O)N2C2CCCC2)cc1OC (stereo not drawn) [BNW26] |  |
| 48.94 % of control | 121.6 % of control | COc1ccc(C(=O)C2=C(O)C(=O)N(CCCn3ccnc3)C2c2ccccc2)cc1Cl (stereo not drawn) [BNW21] |  |
| 41.32 % of control | 104.3 % of control | CCOc1ccc(C2C(C(=O)c3ccc(Cl)cc3)=C(O)C(=O)N2CCCn2ccnc2)cc1OCC (stereo not drawn) [BNW22] |  |
